Key:
[1] = test system: neuron 7B (rhinarial plate on flagellomere 7); type: cell-based, Diaphorina citri; settings: for odor response (frequency of action potentials during stimulus minus baseline), 7B: Table 1, odor diluted to 1%, 50 μL in cartridge; for response to ultra-prolonged activators, 7B: key: 0, no response; +, >50 spikes/second; ++, >100 spikes/second; +++, >150 spikes/second
[2] = test system: neuron 2B (rhinarial plate on flagellomere 2); assay: single-sensillum electrophysiology, odor response of neuron 2B; type: cell-based, Diaphorina citri; settings: for odor response (frequency of action potentials during stimulus minus baseline), 2B: Table 1, odor diluted to 1%, 50 μL in cartridge; for response to ultra-prolonged activators, 2B: key: 0, no response; +, >50 spikes/second; ++, >100 spikes/second; +++, >150 spikes/second
[3] = test system: neuron 7C (rhinarial plate on flagellomere 7); assay: single-sensillum electrophysiology, odor response of neuron 7C; type: cell-based, Diaphorina citri; settings: for odor response (frequency of action potentials during stimulus minus baseline), 7C: Table 1, odor diluted to 1%, 50 μL in cartridge
[4] = test system: neuron 6A (rhinarial plate on flagellomere 6); assay: single-sensillum electrophysiology, odor response of neuron 6A; type: cell-based, Diaphorina citri; settings: for odor response (frequency of action potentials during stimulus minus baseline), 6A: Table 1, odor diluted to 1%, 50 μL in cartridge
[5] = test system: neuron 2C (rhinarial plate on flagellomere 2); assay: single-sensillum electrophysiology, odor response of neuron 2C; type: cell-based, Diaphorina citri; settings: for odor response (frequency of action potentials during stimulus minus baseline), 2C: Table 1, odor diluted to 1%, 50 μL in cartridge
[6] = test system: neuron 6C (rhinarial plate on flagellomere 6); assay: single-sensillum electrophysiology, odor response of neuron 6C; type: cell-based, Diaphorina citri; settings: for odor response (frequency of action potentials during stimulus minus baseline), 6C: Table 1, odor diluted to 1%, 50 μL in cartridge
[7] = test system: neuron 4B (rhinarial plate on flagellomere 4); type: cell-based, Diaphorina citri; settings: for odor response (frequency of action potentials during stimulus minus baseline), 4B: Table 1, odor diluted to 1%, 50 μL in cartridge
[8] = test system: neuron 7A (rhinarial plate on flagellomere 7); assay: single-sensillum electrophysiology, odor response of neuron 7A; type: cell-based, Diaphorina citri; settings: for odor response (frequency of action potentials during stimulus minus baseline), 7A: Table 1, odor diluted to 1%, 50 μL in cartridge; for all read-outs here: key: 0, no response; +, >50 spikes/second; ++, >100 spikes/second; +++, >150 spikes/second
[9] = test system: neuron 4C (rhinarial plate on flagellomere 4); assay: single-sensillum electrophysiology, odor response of neuron 4C; type: cell-based, Diaphorina citri; settings: for odor response (frequency of action potentials during stimulus minus baseline), 4C: Table 1, odor diluted to 1%, 50 μL in cartridge
[10] = test system: neuron 4A (rhinarial plate on flagellomere 4); assay: single-sensillum electrophysiology, odor response of neuron 4A; type: cell-based, Diaphorina citri; settings: for odor response (frequency of action potentials during stimulus minus baseline), 4A: Table 1, odor diluted to 1%, 50 μL in cartridge
ACP [11] = settings: cited from earlier work
[12] = test system: neuron 2A (rhinarial plate on flagellomere 2); assay: single-sensillum electrophysiology, odor response of neuron 2A; type: cell-based, Diaphorina citri; settings: for odor response (frequency of action potentials during stimulus minus baseline), 2A: Table 1, odor diluted to 1%, 50 μL in cartridge; for all read-outs here: key: 0, no response; +, >50 spikes/second; ++, >100 spikes/second; +++, >150 spikes/second
[13] = test system: neuron 6B (rhinarial plate on flagellomere 6); assay: single-sensillum electrophysiology, odor response of neuron 6B; type: cell-based, Diaphorina citri; settings: for odor response (frequency of action potentials during stimulus minus baseline), 6B: Table 1, odor diluted to 1%, 50 μL in cartridge
ACP [14] = settings: small plot field trial, cited from earlier work
[15] = Table 3, 10^−2 in paraffin oil, 50 μL, odor puff of 0.5 sec

| Compound | odor response (frequency of action potentials during stimulus minus baseline), 7B [1] | odor response (frequency of action potentials during stimulus minus baseline), 2B [2] | odor response (frequency of action potentials during stimulus minus baseline), 7C [3] | odor response (frequency of action potentials during stimulus minus baseline), 6A [4] | odor response (frequency of action potentials during stimulus minus baseline), 2C [5] | odor response (frequency of action potentials during stimulus minus baseline), 6C [6] | odor response (frequency of action potentials during stimulus minus baseline), 4B [7] | odor response (frequency of action potentials during stimulus minus baseline), 7A [8] | odor response (frequency of action potentials during stimulus minus baseline), 4C [9] | odor response (frequency of action potentials during stimulus minus baseline), 4A [10] | odor response (frequency of action potentials during stimulus minus baseline), 2A [12] | odor response (frequency of action potentials during stimulus minus baseline), 6B [13] | further results |
| --- | --- | --- | --- | --- | --- | --- | --- | --- | --- | --- | --- | --- | --- |
| COC(=O)c1ccccc1O [methyl salicylate] | + (+, >50 spikes/second) | 0 | 0 | 0 | 0 | 0 | + (+, >50 spikes/second) | 0 | 0 | 0 | 0 | + (+, >50 spikes/second) | ACP behavior in lab behavior assays (ACP [11]; at lower concentration): attracted; ACP behavior in laboratory behavioral assays (ACP [11]; high amounts, as released by citrus plants under physical stress): repellency |
| CC1=CCC(=C(C)C)CC1 [terpinolene] | 0 | 0 | 0 | 0 | 0 | 0 | + (+, >50 spikes/second) | 0 | 0 | 0 | 0 | + (+, >50 spikes/second) | – |
| CCCC(=O)OC [methyl butyrate] | 0 | 0 | + (+, >50 spikes/second) | 0 | 0 | 0 | ++ (++, >100 spikes/second) | 0 | 0 | 0 | 0 | + (+, >50 spikes/second) | – |
| CCCCCCCC=O [octanal] | ++ (++, >100 spikes/second) | + (+, >50 spikes/second) | 0 | + (+, >50 spikes/second) | 0 | + (+, >50 spikes/second) | 0 | 0 | + (+, >50 spikes/second) | + (+, >50 spikes/second) | 0 | 0 | – |
| CSSC [DMDS, dimethyl disulfide] | – | – | – | – | – | – | – | – | – | – | – | – | reduction in ACP densities (ACP [14]; low psyllid density area (average 3-4 ACP/10 trees)): 65%; duration of reduction in ACP densities (ACP [14]): up to three |
| C=C(C)C1CC=C(C)CC1 (single isomer, unassigned; (+)) [(+)-limonene] | 0 | 0 | 0 | 0 | + (+, >50 spikes/second) | 0 | + (+, >50 spikes/second) | 0 | 0 | 0 | 0 | + (+, >50 spikes/second) | – |
| O=CCc1ccccc1 [phenylacetaldehyde] | 0 | 0 | 0 | 0 | 0 | 0 | + (+, >50 spikes/second) | 0 | 0 | 0 | 0 | + (+, >50 spikes/second) | – |
| C=CC(O)CCCCC (stereo not shown) [1-octen-3-ol] | 0 | 0 | 0 | 0 | 0 | 0 | 0 | 0 | 0 | 0 | 0 | + (+, >50 spikes/second) | – |
| C=CCSSCC=C [allyl disulfide] | 0 | 0 | 0 | 0 | 0 | 0 | ++ (++, >100 spikes/second) | 0 | 0 | 0 | 0 | + (+, >50 spikes/second) | – |
| C=C(C)[C@H]1CC=C(C)C(=O)C1 [(+)-carvone] | 0 | 0 | 0 | 0 | 0 | 0 | ++ (++, >100 spikes/second) | 0 | 0 | 0 | 0 | ++ (++, >100 spikes/second) | response to ultra-prolonged activators, 7B [1, 15]: 0; response to ultra-prolonged activators, 2B [2, 15]: 0; response to ultra-prolonged activators, 7C [3, 15]: 0; response to ultra-prolonged activators, 6A [4, 15]: 0; response to ultra-prolonged activators, 2C [5, 15]: 0; response to ultra-prolonged activators, 6C [6, 15]: 0; response to ultra-prolonged activators, 4B [7, 15]: ++ (++, >100 spikes/second); response to ultra-prolonged activators, 7A [8, 15]: 0; response to ultra-prolonged activators, 4C [9, 15]: 0; response to ultra-prolonged activators, 4A [10, 15]: 0; response to ultra-prolonged activators, 2A [12, 15]: 0; response to ultra-prolonged activators, 6B [13, 15]: ++ (++, >100 spikes/second) |
| CC(=O)CCC=C(C)C [6-methyl-5-hepten-2-one] | 0 | 0 | 0 | 0 | + (+, >50 spikes/second) | 0 | 0 | 0 | 0 | 0 | 0 | 0 | – |
